The record followed here is US12433875B2, “(R)-4-(1-(6-(4-(trifluoromethyl)benzyl)-6-azaspiro[2.5]octane-5-carboxamido)-cyclopropyl) benzoic acid or its salt also in polymorphic form a for use in the prevention of heterotopic ossification” (ROTTAPHARM BIOTECH S.R.L., priority 2019, dated 2025).

Assay [1] relates to PBMC's from healthy volunteers (Th17 IL-17F memory cells). The experiment in a line: Human T-helper (Th) cell polarization, flow cytometry. To be noted: 100 nM; rIL-2 and rIL-21 5 ng/ml, anti-CD3 and anti-CD28 1.5 ng/ml, PGE2 30 nM, 48 hour; FIG. 12. It counts as cell-based. How it is done: FIG. 12a is the spydergram illustrating the preferential inhibitory effect of the form A of the sodium salt of (R)-4-(1-(6-(4-(trifluoromethyl)benzyl)-6-azaspiro[2.5]octane-5-carboxamido)cyclopropyl)benzoic acid on Th17 polarization towards Th17 IL-17F memory cells induced by a stimulation with rIL-2 and rIL-21 (both at 5 ng/ml) in combination with anti-CD3 and anti-CD28 (both at 1.5 ng/ml) co-stimulated with PGE2 (30 nM) over a 48 hour. Stimulated cells were normalized to 100%.
FIG. 12b represents the percent of Th17 IL-17F memory cell stimulation (mean±sem) of cells taken by individual donors vs. their baseline levels in the absence or in the presence of 100 nM form A of the sodium salt of (R)-4-(1-(6-(4-(trifluoromethyl)benzyl)-6-azaspiro[2.5]octane-5-carboxamido)cyclopropyl)benzoic acid.
In this model the ability of the Form A of the sodium salt of (R)-4-(1-(6-(4-(trifluoromethyl)benzyl)-6-azaspiro[2.5]octane-5-carboxamido)cyclopropyl)benzoic acid to interacts with the immunological features able to influence pathological bone formation was studied. Specifically, the effect of the Form A of the sodium salt of (R)-4-(1-(6-(4-(trifluoromethyl)benzyl)-6-azaspiro[2.5]octane-5-carboxamido)cyclopropyl)benzoic acid on the Th-cell polarization in human Tcells stimulated by inflammatory agents was studied. […]

The subject of assay [2] is Sprague Dawley male rats (AIA model). The assay can be described thus: Adjuvant Induced Arthritis (AIA) in rats, histology of pathological bone apposition. It is filed as in vivo, rat. To be noted: 10 mg/kg orally once a day for 15 days, FIG. 10. An excerpt: Adjuvant Induced Arthritis (AIA) in rats is a widely studied and accepted animal model of inflammatory arthritis driven by Tcells. In experimental autoimmune diseases, CFA mediated activation of the innate immune compartment is important not only by regulating the early induction phase, but also by providing a surplus of effector and regulator cells in the late phase. Also in this model it was possible to appreciate a relevant pathological apposition of new bone. This paradigm was used as a third model to further confirm the effect of the compound of the invention as an effective inhibitor of pathological heterotopic ossification.
Sprague Dawley male rats (Charles River) were immunized by intradermal injection at the base of the tail with 150 μl of complete Freund's adjuvant (CFA) containing 10 mg/ml of heat killed Mycobacterium tuberculosis (Chondrex code 7027) or with incomplete Freund's adjuvant (IFA) (sham n=10). Ten days after immunization arthritis developed in all animals, but not in the sham-group; edema and clinical scores were assessed and the animals were then randomized and assigned to treatment groups (n=9-12) as follows: vehicle, the compound of the invention 10 mg/kg or 30 mg/kg. The compound of the invention was administered orally once a day for 15 days. […]

As for `O=C([O-])c1ccc(C2(NC(=O)[C@H]3CC4(CCN3Cc3ccc(C(F)(F)F)cc3)CC4)CC2)cc1.[Na+]` [Form A, sodium (R)-4-(1-(6-(4-(trifluoromethyl)benzyl)-6-azaspiro[2.5]octane-5-carboxamido)cyclopropyl)benzoate], the “polarization of Th17 cells towards IL-17F producing population (Th17 IL-17F memory cells)” value in assay [1] was “reduce significantly the polarization of Th17 cells towards a population capable to produce IL-17F”. In addition, in assay [2], the “pathological bone apposition (histology)” value is given as “completely abrogated the pathological bone apposition in almost all animals”.
